Results as given in US7504393B2, “Benzylamine analogues” (priority 2001, dated 2009).
Counter-ions that a name gives are not always drawn. Like-named read-outs stand apart in the source and are kept apart here.

Experiments:
serotonin re-uptake = target: T1, serotonin re-uptake (Rattus norvegicus, UniProt P31652); experiment: Serotonin re-uptake inhibitory activity (synaptosome, [3H]5-HT); format: biochemical; conditions: synaptosome from rat whole brain except cerebellum; [3H]5-HT, 37° C.; read-out: IC50 (nM) Serotonin re-uptake inhibitory activity
T1 construct: synaptosome prepared from rat whole brains except the cerebellums; from tissue; host or cells: synaptosomes from rat whole brain except the cerebellum
T1 sequence (P31652 whole entry): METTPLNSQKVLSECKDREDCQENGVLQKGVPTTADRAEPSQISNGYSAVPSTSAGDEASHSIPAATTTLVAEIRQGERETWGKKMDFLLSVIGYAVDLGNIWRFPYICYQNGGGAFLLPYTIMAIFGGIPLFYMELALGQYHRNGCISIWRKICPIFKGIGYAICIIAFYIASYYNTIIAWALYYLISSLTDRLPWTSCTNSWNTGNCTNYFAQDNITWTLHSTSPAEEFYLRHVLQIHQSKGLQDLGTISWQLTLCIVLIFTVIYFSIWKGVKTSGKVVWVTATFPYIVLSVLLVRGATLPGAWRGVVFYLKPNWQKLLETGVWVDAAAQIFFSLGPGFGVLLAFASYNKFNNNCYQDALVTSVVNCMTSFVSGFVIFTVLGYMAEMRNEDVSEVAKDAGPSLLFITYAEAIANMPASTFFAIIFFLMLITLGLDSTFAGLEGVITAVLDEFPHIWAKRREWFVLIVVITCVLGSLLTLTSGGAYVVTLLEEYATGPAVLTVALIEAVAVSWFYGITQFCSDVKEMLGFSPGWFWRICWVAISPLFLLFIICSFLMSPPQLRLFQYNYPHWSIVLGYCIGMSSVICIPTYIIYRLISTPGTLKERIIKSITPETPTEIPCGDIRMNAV
Description: Serotonin re-uptake inhibitory activity was determined using synaptosome prepared from rat whole brains except the cerebellums. Briefly, 10 μl of DMSO solution-dissolved test substance (control group; DMSO solution alone) was added to 1 ml of synaptosome and incubated for 5 min at 37° C. (in the control, DMSO alone was added to the synaptosome and incubated at 4° C.). Furthermore, 10 μl of [^3H]5-HT solution (final concentration: 10 μM as a total concentration of 5-HT, 100 nM as [^3H]5-HT) was added and incubated for 5 min at 37° C. Then 4 ml of ice-cold saline was added to stop the response. The response solution was filtered, 4 ml of saline was added, and the solution was once again filtered. Furthermore, 5 ml of Pico-Fluor was added, then ^3H levels on filter papers were counted by a liquid scintillation counter. Concentrations of test compounds to inhibit serotonin re-uptake by 50% (IC50) were calculated.

acetylcholinesterase = target: T2, acetylcholinesterase (Mus musculus, UniProt P21836); experiment: biochemical
T2 construct: phosphate buffer solution containing the brain homogenate; from tissue; host or cells: mouse whole brain homogenate
T2 sequence (P21836 32-614): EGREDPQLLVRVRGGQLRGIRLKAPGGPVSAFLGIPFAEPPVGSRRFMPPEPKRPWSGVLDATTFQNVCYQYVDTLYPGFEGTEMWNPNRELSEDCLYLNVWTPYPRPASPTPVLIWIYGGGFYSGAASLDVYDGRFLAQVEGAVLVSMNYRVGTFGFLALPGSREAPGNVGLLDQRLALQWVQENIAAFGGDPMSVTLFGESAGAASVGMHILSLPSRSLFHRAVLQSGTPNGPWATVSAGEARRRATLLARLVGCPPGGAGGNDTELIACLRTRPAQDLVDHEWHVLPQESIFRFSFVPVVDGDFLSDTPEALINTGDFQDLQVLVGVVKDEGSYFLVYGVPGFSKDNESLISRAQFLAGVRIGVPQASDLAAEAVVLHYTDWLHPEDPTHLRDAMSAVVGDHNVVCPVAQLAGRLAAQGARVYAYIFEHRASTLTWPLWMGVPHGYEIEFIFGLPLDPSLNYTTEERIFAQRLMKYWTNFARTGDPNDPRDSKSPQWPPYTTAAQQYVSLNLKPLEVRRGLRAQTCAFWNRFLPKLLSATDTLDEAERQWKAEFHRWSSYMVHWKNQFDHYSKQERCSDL

CN[C@@H](CCOc1ccc([N+](=O)[O-])cc1Cl)c1ccc(OC(=O)N(C)C)cc1 [Test Compound 127, (S)-4-[3-(2-Chloro-4-nitrophenoxy)-1-methylaminopropyl]phenyl dimethylcarbamate hydrochloride]
IC50 (serotonin re-uptake): 856 nM | IC50 (acetylcholinesterase): 40 nM

CN[C@H](CCOc1ccc([N+](=O)[O-])cc1Cl)c1ccc(OC(=O)N(C)C)cc1 [Test Compound 128, (R)-4-[3-(2-Chloro-4-nitrophenoxy)-1-methylaminopropyl]phenyl dimethylcarbamate hydrochloride]
IC50 (serotonin re-uptake): 70 nM | IC50 (acetylcholinesterase): 15 nM

CN(C)C(=O)Oc1ccc([C@H](CCOc2ccc([N+](=O)[O-])cc2Cl)N(C)C)cc1 [Test Compound 129, (S)-4-[3-(2-Chloro-4-nitrophenoxy)-1-dimethylaminopropyl]phenyl dimethylcarbamate hydrochloride]
IC50 (serotonin re-uptake): 650 nM | IC50 (acetylcholinesterase): 64 nM

CN(C)C(=O)Oc1ccc([C@@H](CCOc2ccc([N+](=O)[O-])cc2Cl)N(C)C)cc1 [Test Compound 130, (R)-4-[3-(2-Chloro-4-nitrophenoxy)-1-dimethylaminopropyl]phenyl dimethylcarbamate hydrochloride]
IC50 (serotonin re-uptake): 88 nM | IC50 (acetylcholinesterase): 42 nM

CN(C)C(=O)Oc1ccc(C(CCOc2ccc([N+](=O)[O-])cc2Cl)N(C)C)cc1 (centres unmarked) [Test Compound 131, 4-[3-(2-Chloro-4-nitrophenoxy)-1-dimethylaminopropyl]phenyl dimethylcarbamate hydrochloride]
IC50 (serotonin re-uptake): 129 nM | IC50 (acetylcholinesterase): 57 nM

CN(C)C(=O)Oc1cccc([C@@H](CCOc2ccc([N+](=O)[O-])cc2)N(C)C)c1 [Test Compound 136, (R)-3-[3-(4-Nitrophenoxy)-1-dimethylaminopropyl]phenyl dimethylcarbamate hydrochloride]
IC50 (serotonin re-uptake): 236 nM | IC50 (acetylcholinesterase): 980 nM

CN(C)C(=O)Oc1ccc([C@@H](CCOc2ccc(F)c(F)c2)N(C)C)cc1 [Test Compound 152, (R)-4-[3-(3,4-Difluorophenoxy)-1-dimethylaminopropyl]phenyl dimethylcarbamate hydrochloride]
IC50 (serotonin re-uptake): 67 nM | IC50 (acetylcholinesterase): 310 nM

CN[C@@H](CCOc1ccc(F)c(F)c1)c1ccc(OC(=O)N(C)C)cc1 [Test Compound 162, (S)-4-[3-(3,4-Difluorophenoxy)-1-methylaminopropyl]phenyl dimethylcarbamate hydrochloride]
IC50 (serotonin re-uptake): 594 nM | IC50 (acetylcholinesterase): 790 nM

CNC(CCOc1cccc2ccccc12)c1ccc(OC(=O)N(C)C)cc1 (centres unmarked) [Test Compound 179, 4-[3-(Naphthalen-1-yloxy)-1-methylaminopropyl]phenyl dimethylcarbamate hydrochloride]
IC50 (serotonin re-uptake): 86 nM | IC50 (acetylcholinesterase): 372 nM

CNC(CCOc1ccc2ncccc2c1)c1ccc(OC(=O)N(C)C)cc1 (centres unmarked) [Test Compound 180, 4-[3-(Quinolin-6-yloxy)-1-methylaminopropyl]phenyl dimethylcarbamate hydrochloride]
IC50 (serotonin re-uptake): 104 nM | IC50 (acetylcholinesterase): 111 nM

CN(C)C(=O)Oc1ccc(C(CCOc2c(F)c(F)c(F)c(F)c2F)N(C)C)cc1 (centres unmarked) [Test Compound 181, 4-[3-(Pentafluorophenoxy)-1-dimethylaminopropyl]phenyl dimethylcarbamate hydrochloride]
IC50 (serotonin re-uptake): 44 nM | IC50 (acetylcholinesterase): 198 nM

CN[C@@H](CCOc1ccc([N+](=O)[O-])cc1)c1ccc(OC(=O)N(C)C)c(C)c1 [Test Compound 183, (S)-4-[3-(4-Nitrophenoxy)-1-methylaminopropyl]-2-methylphenyl dimethylcarbamate hydrochloride]
IC50 (serotonin re-uptake): 67 nM | IC50 (acetylcholinesterase): 26 nM

CN[C@H](CCOc1ccc([N+](=O)[O-])cc1)c1ccc(OC(=O)N(C)C)c(C)c1 [Test Compound 184, (R)-4-[3-(4-Nitrophenoxy)-1-methylaminopropyl]-2-methylphenyl dimethylcarbamate hydrochloride]
IC50 (serotonin re-uptake): 49 nM | IC50 (acetylcholinesterase): 56 nM

CN(C)C(=O)Oc1ccc2c(c1)CCN(C)C2CCOc1ccc([N+](=O)[O-])cc1 (centres unmarked) [Test Compound 187, 2-Methyl-1-[2-(4-nitrophenoxy) -ethyl]-1,2,3,4-tetrahydroisoquinolin-6-yl dimethylcarbamate hydrochloride]
IC50 (serotonin re-uptake): 940 nM | IC50 (acetylcholinesterase): 11 nM

Cc1cc(OCCC2c3ccc(OC(=O)N(C)C)cc3CCN2C)ccc1Cl (centres unmarked) [Test Compound 188, 2-Methyl-1-[2-(4-chloro-3-methylphenoxy)-ethyl]-1,2,3,4-tetrahydroisoquinolin-6-yl dimethylcarbamate hydrochloride]
IC50 (serotonin re-uptake): 150 nM | IC50 (acetylcholinesterase): 53 nM

CN(C)C(=O)Oc1ccc2c(c1)CCN(C)C2CCOc1ccc([N+](=O)[O-])cc1Cl (centres unmarked) [Test Compound 189, 2-Methyl-1-[2-(2-chloro-4-nitrophenoxy)-ethyl]-1,2,3,4-tetrahydroisoquinolin-6-yl dimethylcarbamate hydrochloride]
IC50 (serotonin re-uptake): 300 nM | IC50 (acetylcholinesterase): 6 nM

CN(C)C(=O)Oc1ccc2c(c1)CCN(C)[C@@H]2CCOc1ccc([N+](=O)[O-])cc1Cl [Test Compound 190, 2-Methyl-1-(R)-[2-(2-chloro-4-nitrophenoxy)-ethyl]-1,2,3,4-tetrahydroisoquinolin-6-yl dimethylcarbamate hydrochloride]
IC50 (serotonin re-uptake): 460 nM | IC50 (acetylcholinesterase): 12 nM

CN(C)C(=O)Oc1ccc2c(c1)C(CCOc1ccc(Cl)cc1)N(C)CC2 (centres unmarked) [Test Compound 191, 2-Methyl-1-[2-(4-chlorophenoxy)-ethyl]-1,2,3,4-tetrahydroisoquinolin-7-yl dimethylcarbamate hydrochloride]
IC50 (serotonin re-uptake): 520 nM | IC50 (acetylcholinesterase): 265 nM

CN(C)C(=O)Oc1ccc2c(c1)CCCN(C)C2CCOc1ccc([N+](=O)[O-])cc1Cl (centres unmarked) [Test Compound 193, 2-Methyl-1-[2-(2-chloro-4-nitrophenoxy)-ethyl]-1,3,4,5-tetrahydro-1H-benzo[c]azepin-7-yl dimethylcarbamate hydrochloride]
IC50 (serotonin re-uptake): 680 nM | IC50 (acetylcholinesterase; mouse whole brain homogenate, acetylthiocholine/DTNB, absorbance 412 nm, read-out: IC50 (nM) Acetylcholinesterase inhibitory activity): 24 nM

Cc1cc(OCCC2c3ccc(OC(=O)N(C)C)cc3C=CCN2C)ccc1Cl (centres unmarked) [Test Compound 194, 2-Methyl-1-[2-(4-chloro-3-methylphenoxy)-ethyl]-2,3-dihydro-1H-benzo[c]azepin-7-yl dimethylcarbamate hydrochloride]
IC50 (serotonin re-uptake): 61 nM | IC50 (acetylcholinesterase): 103 nM

CN(C)C(=O)Oc1ccc2c(c1)C=CCN(C)C2CCOc1ccc(F)cc1Cl (centres unmarked) [Test Compound 195, 2-Methyl-1-[2-(2-chloro-4-fluorophenoxy) -ethyl]-2,3-dihydro-1H-benzo[c]azepin-7-yl dimethylcarbamate hydrochloride]
IC50 (serotonin re-uptake): 44 nM | IC50 (acetylcholinesterase): 50 nM

CNC(CCOc1ccc(Cl)c([N+](=O)[O-])c1)c1cccc(OC(=O)N(C)C)c1 (centres unmarked) [Test Compound 203, 3-[3-(4-Chloro-3-nitrophenoxy)-1-methylaminopropyl]phenyl dimethylcarbamate hydrochloride]
IC50 (serotonin re-uptake): 40 nM | IC50 (acetylcholinesterase): 49 nM
